Two compounds from patent publication US7592335B2, “Oxazolidinone derivatives as antimicrobials” (Ranbaxy Laboratories Limited, priority 2005, dated 2009) can be followed below.

In brackets after ≈: the same amount, converted by molar mass. A value given as a limit tells only on which side of the number the result lay.

In assay [1] the test system is Enterococcus faecalis ATCC 29212. As to the kind of experiment: in vitro antibacterial activity, agar dilution MIC. Particulars: 35±2° C. In kind it is cell-based. On the procedure: (§1) The compounds of the invention display antibacterial activity when tested by the agar incorporation method. The following minimum inhibitory concentrations (μg/mL) were obtained for representative compound of the invention, which is given below in the following table.
(§2) Briefly, the compounds were dissolved in dimethylsulphoxide and doubling dilution of the compounds was incorporated into Muller Hilton agar before solidification. Inoculum for staphylococcus aureus and Enterococus strain was prepared by direct colony suspension in normal saline solution and adjusting the turbidity to 0.5 Macfarland turbidity and subsequently diluting as per NCCLS guidelines in order to obtain 10^4 CFU/spot. CFU/mL of few randomly selected cultures was performed. The cultures were replicated on agar plate using Denley's multipoint replicator. The agar plates were incubated for 18 hours-24 hours (24 hours for MRSA studies) at 35±2° C. Q.C. strains were also included in each run of the study.
(§3) The concentration showing no growth of the inoculated culture was recorded as the MIC. Appropriate ATCC standard strains were simultaneously tested and result recorded only when the MIC's against standard antibiotics were within the acceptable range.
A general note: In agar dilution the substance is mixed into plates at graded concentrations.

In assay [2] the test system is Methicilline Resistant Staphylococcus aureus ATCC33. As to the kind of experiment: in vitro antibacterial activity, agar dilution MIC. Particulars: 24 hours, 35±2° C. The format is cell-based. On the procedure:
as §1, §2, §3

The test system of assay [3] is Methicilline Resistant Staphylococcus aureus ATCC562. Description: in vitro antibacterial activity, agar dilution MIC. In kind it is cell-based. To be noted: 24 hours, 35±2° C. On the procedure:
as §1, §2, §3

The test system of assay [4] is Staphylococcus aureus ATCC 15187. As to the kind of experiment: in vitro antibacterial activity, agar dilution MIC. In kind it is cell-based. To be noted: 35±2° C. On the procedure: as §1, §2, §3
Assay [5] has as its system Staphylococcus aureus ATCC 25923. Description: in vitro antibacterial activity, agar dilution MIC. To be noted: 35±2° C. In kind it is cell-based. On the procedure: as §1, §2, §3
In assay [6] the test system is Vancomycin-resistant enterococci ATCC 6A. Description: in vitro antibacterial activity, agar dilution MIC. To be noted: VRE ATCC 6A, 18-24 hours, 35±2° C. The format is cell-based. On the procedure:
as §1, §2, §3

For assay [7], the system named is Streptococcus pneumonia ATCC AB34. As to the kind of experiment: in vitro antibacterial activity, agar dilution MIC (MHA and 5% sheep blood). In kind it is cell-based, Streptococcus pneumoniae. Particulars: 18-24 hours. On the procedure:
as §1
(§4) Inoculum preparation for Streptococcus pneumoniae, Moraxella catarrhalis, Streptococcus pyogenes strains and the method of MIC is an agar dilution method with MHA (Mueller Hinton agar) and 5% sheep blood. Inoculum was prepared by direct colony suspension in normal saline solution and adjusting the turbidity to 1 Mcfarland and subsequently diluting as per NCCLS guidelines in order to obtain 10^4 CFU/ml. The plates were incubated in CO2 at 37° C. for 18-24 hours.
as §3

The subject of assay [8] is Streptococcus pneumonia ATCC6303. Described as above. In kind it is cell-based, Streptococcus pneumoniae. Particulars: 18-24 hours. On the procedure: as §1, §4, §3
The subject of assay [9] is Moraxella catarrhalis ATCC 8176. The description is as above. The format is cell-based. To be noted: 18-24 hours. On the procedure:
as §1, §4, §3

The test system of assay [10] is Streptococcus pyogenes ATCC 19615. The description is as above. To be noted: 18-24 hours. The format is cell-based. The procedure:
as §1, §4, §3

In assay [11] the test system is Haemophilus influenzae 49247. As to the kind of experiment: Haemophilus MIC, microbroth dilution method. In kind it is cell-based. To be noted: H. influ. 49247, Mueller Hinton Broth cation adjusted + yeast extract + supplements. On the procedure:
as §1
The in vitro activity for Haemophilus MICs were performed by using Microbroth dilution method as follows: Media used: Mueller Hinton Broth (MHB-Difco)−Cation adjusted+5 grams per liter Yeast extract+supplements
Preparation of drug concentrations in 96 well microtitre plates were done as per the NCCLS method. Inoculum was prepared by direct colony suspensions in normal saline and adjusted to 1 McFarland turbidity and subsequently diluted in broth 100 times as per NCCLS guidelines in order to obtain 10^5 […].
as §3
A general note: In broth dilution the organism is exposed to a series of concentrations in liquid medium.

As for `CC(=O)NCC1CN(c2ccc(N3CC4NCCOC4C3)c(F)c2)C(=O)O1` (stereo not shown) [Compound No. 05, N-[(3-{3-fluoro-4-[(7aE)-hexahydropyrrolo[3,4-b][1,4]oxazin-6(2H)-yl]phenyl}-2-oxo-1,3-oxazolidin-5-yl)methyl]acetamide], the “minimum inhibitory concentration, E. faecalis 29212” value in assay [1] (Ent. faecalis ATCC 29212, 18-24 hours) stood at 2 µg/mL (≈ 5.29 µM). Also, the “minimum inhibitory concentration, MRSA 33” value in assay [2] is 4 µg/mL (≈ 10.6 µM). Also, in assay [3], the “minimum inhibitory concentration, MRSA 562” value amounted to 4 µg/mL (≈ 10.6 µM). The “minimum inhibitory concentration, S. aureus 15187” value in [4] (S. aureus ATCC 15187, 18-24 hours) stood at 8 µg/mL (≈ 21.1 µM). The “minimum inhibitory concentration, S. aureus 25923” value in [5] (S. aureus ATCC 25923, 18-24 hours) stood at 8 µg/mL (≈ 21.1 µM). The “minimum inhibitory concentration, VRE 6A” value in assay [6] is 2 µg/mL (≈ 5.29 µM). Further, the “minimum inhibitory concentration, S. pneum AB34” value in assay [7] (CO2, 37° C.) worked out at 2 µg/mL (≈ 5.29 µM). Moreover, the “minimum inhibitory concentration, S. pneum 6303” value in assay [8] (CO2, 37° C.) was found to be 2 µg/mL (≈ 5.29 µM). Moreover, the “minimum inhibitory concentration, M. catt 8176” value in assay [9] (M. catt. ATCC 8176, CO2, 37° C.) is greater than 16 µg/mL. Besides, the “minimum inhibitory concentration, S. pyogenes 19615” value in [10] (Strep. pyog. ATCC 19615, CO2, 37° C.) is 2 µg/mL (≈ 5.29 µM). Besides, the “minimum inhibitory concentration, H. inf 49247” value in [11] is 8 µg/mL.

Take `CC(=O)NC[C@H]1CN(c2ccc(N3CCOCC3)c(F)c2)C(=O)O1` [Linezolid]: the MIC was found to be 2 µg/mL (≈ 5.93 µM) in [1] (Enterococcus faecalis, ATCC29212, Ent. faecalis ATCC 29212, 18-24 hours, read-out: minimum inhibitory concentration, E. faecalis 29212); 2 µg/mL (≈ 5.93 µM) in assay [2] (Staphylococcus aureus, ATCC 33 / MRSA, read-out: minimum inhibitory concentration, MRSA 33); 2 µg/mL (≈ 5.93 µM) in assay [3] (Staphylococcus aureus, ATCC 562 / MRSA, read-out: minimum inhibitory concentration, MRSA 562); 2 µg/mL (≈ 5.93 µM) in assay [4] (Staphylococcus aureus, ATCC15187, S. aureus ATCC 15187, 18-24 hours, read-out: minimum inhibitory concentration, S. aureus 15187); 2 µg/mL (≈ 5.93 µM) in assay [5] (Staphylococcus aureus, ATCC25923, S. aureus ATCC 25923, 18-24 hours, read-out: minimum inhibitory concentration, S. aureus 25923); 2 µg/mL (≈ 5.93 µM) in assay [6] (Enterococcus, read-out: minimum inhibitory concentration, VRE 6A). For the same compound, the MIC in assay [7] (Streptococcus pneumoniae, ATCCAB34, S. pneum ATCC AB34, CO2, 37° C., read-out: minimum inhibitory concentration, S. pneum AB34) came to 2 µg/mL (≈ 5.93 µM); in [8] (Streptococcus pneumoniae, S. pneum ATCC6303, CO2, 37° C., read-out: minimum inhibitory concentration, S. pneum 6303), 1 µg/mL (≈ 2.96 µM); in [9] (Moraxella catarrhalis, ATCC8176, M. catt. ATCC 8176, CO2, 37° C., read-out: minimum inhibitory concentration, M. catt 8176), 2 µg/mL (≈ 5.93 µM); in [10] (Streptococcus pyogenes, ATCC19615, Strep. pyog. ATCC 19615, CO2, 37° C., read-out: minimum inhibitory concentration, S. pyogenes 19615) it was 2 µg/mL (≈ 5.93 µM); in [11] (Haemophilus influenzae, read-out: minimum inhibitory concentration, H. inf 49247), 8 µg/mL.
